Measured values as given in patent US20060122153A1, “Antineoplastic ether lipid compounds with modifications at the sn-2 carbon” (priority 2003, published 2006).

Assays:
[1] = tested on: U937; assay: In vitro growth inhibition (GI50), cell growth assay; format: cell-based, human; details: U937 tumor cell line, 3 days
Method: After 3 days of incubation, cell growth was determined.
To determine the Growth Inhibition in the suspension cell lines, cell numbers were directly counted instead of using the SRB assay which determines the total cell protein. One day prior to the drug treatment, 40,000 cells per well were seeded into 24-well plates in a volume of 0.5 mL. Stock solutions were diluted with complete medium to twice the desired final concentrations, and then 0.5 mL aliquots of each dilution were added to the designated wells. After 3 days incubation, cell growth was determined by counting cell number using a coulter counter (Z-M, coulter). Cell counts were-also taken at time 0 and subtracted from the test results to give net growth.

[2] = tested on: DEVDase activity (Caspase 3) in Jurkat T cells; assay: DEVDase activity in Jurkat T cells; format: cell-based; details: for % L-ET18OCH3 (DEVDase, 6 hrs): Jurkat T cells; for DEVDase activity compared to ET-18-OCH3 (in words): Jurkat T cell line
Method: Suspension cells were seeded at density 3.2×10^5 cells per mL in RPMI-1640 medium (Bio-Whittaker) supplemented with 10% heat inactivated FBS (Bio-Whittaker). Cells were pre-incubated overnight prior to treatment with the ether lipid compounds of the invention. At treatment time cell density was 5×10^5 cells per mL. Cells were incubated with the ether lipid compounds of the invention for various periods of time, usually 6 hours. Cells were collected, washed with 1×DPBS and resuspended in 110 μl of Buffer A (10 mM BEPES-KOH, pH 7.4, 2 mM EDTA, 0.1% CHAPS, 5 mM DTT, 1:100 dilution of protease inhibitors cocktail (Sigma)-DTT and protease inhibitors should be added just before use). After 10 min incubation on ice in order to lyse cells, samples were frozen on dry ice/ethanol and kept at −20° C. until analysis.
At the time of analysis of DEVDase activity frozen pellets were kept on ice until thawed and after vigorous vortexing samples were centrifuged at 14,000 rpm for 6 min.; Supernatant was transferred into another tube and 2 μl, in triplicates, were used for protein measurement using Bradford reagent (Bio-Rad).
Measurement of DEVDase activity was carried out in 100 μl volume, where 10 μg of protein was delivered in 50 μl of Buffer A and 40 μM of substrate Ac-DEVD-AMC was also delivered in 50 μl of Buffer A. All measurements were done in triplicates. Reaction was carried out for 1 hour and generation of fluorescent product of reaction (aminomethylcoumarin) was measured by reading fluorescence at 1em 460 nm (1ex 360 nm). Changes in DEVDase activity were calculated after subtraction of background fluorescence of substrate incubated without proteins, and were expressed as percent of control (DEVDase activity in untreated cells). Average of DEVDase activity, calculated from few independent experiments, was used to calculate percent of L-ether lipid-induced DEVDase activity.

[3] = tested on: K-562; assay: NCI growth inhibition screen, leukemia panel; format: cell-based, human; set-up: key to Performance as compared to ET-18-O—CH3: = means equivalent activity; + means that it appears to be significantly better (i.e., by ˜2x); < means it appears to be less active than ET18OCH3 (˜2x); a combination like =/+ or </+ means that activity is dependent upon the isomer; a combination like =/+ or </+ means that activity is dependent upon the isomer; details: for Performance as compared to ET-18-O—CH3: K-562, Leukemia, from GI50s
Method: (§1) Candidates deemed suitable for in vivo testing were then synthesized in large scale quantities and some of this material was sent to the NCI's Developmental Therapeutics Program for a battery of growth inhibitory studies against various human tumor cell lines (60 cell lines, 9 different panels). The remainder of the material was used to assess in vivo efficacy using murine tumor models. Additionally, studies were conducted on the lead candidates to discern mechanism of action with particular emphasis on these agents apoptotic ability as measured by caspase 3 activity. The details (materials and methods) for these various assays are described further in the following discussion.
(§2) Ten compounds were also sent to NCI's Drug Discovery Program for screening against numerous human tumor cell lines (9 panels total: renal ovarian, colon, CNS, non-small cell lung, leukemia, breast, melanoma, and prostate). The data are shown in FIGS. 2a-i which also include data regarding D- and L-ET-18-OCH3 (listed as L-EL and D-EL in the figures). Upon examining the data, one is struck by how 1R and 1a′S standout in comparison to the other compounds, especially for the renal, ovarian, colon, and CNS panels.

[4] = tested on: RPMI-8226; assay: NCI growth inhibition screen, leukemia panel; format: cell-based, human; set-up: key to Performance as compared to ET-18-O—CH3: = means equivalent activity; + means that it appears to be significantly better (i.e., by ˜2x); < means it appears to be less active than ET18OCH3 (˜2x); a combination like =/+ or </+ means that activity is dependent upon the isomer; a combination like =/+ or </+ means that activity is dependent upon the isomer; details: for activity (in words): RPMI-8226 cell line, NCI screen; for Performance as compared to ET-18-O—CH3: RPMI-8226, Leukemia, from GI50s
Method: as §1, §2

Row | Compound | GI50 [1] [nM] | % L-ET18OCH3 (DEVDase, 6 hrs) ([2]; 10 μM ether lipid) [%] | % L-ET18OCH3 (DEVDase, 6 hrs) ([2]; 20 μM ether lipid) [%] | % L-ET18OCH3 (DEVDase, 6 hrs) ([2]; 30 μM ether lipid) [%] | activity (in words) ([3]; K-562 cell line, NCI screen) | activity (in words) [4] | DEVDase activity compared to ET-18-OCH3 (in words) [2] | Performance as compared to ET-18-O—CH3 [3] | Performance as compared to ET-18-O—CH3 [4]
1 | CCCCCCCCCCCCCCCCCCOCC(COP(=O)([O-])OCC[N+](C)(C)C)OC [D-ET18OCH3, 1-O-octadecyl-2-O-methyl-glycerophosphocholine, reference compound] | 1400 | 79.3 ± 9.7 | 89.2 ± 12.2 | 92.1 ± 11.8 | extremely poor activity | extremely poor activity |  |  | 
2 | CCCCCCCCCCCCCCCCCCOC[C@@H](COP(=O)([O-])OCC[N+](C)(C)C)OS(C)(=O)=O [1a′S] | 1400 | 58.9 ± 9.1 | 55.5 ± 8.3 | 61.3 ± 9.1 |  | poor activity | less DEVDase activity than ET-18-OCH3 | =/+ | </+
3 | CCCCCCCCCCCCCCCCCCOCC(COP(=O)([O-])OCC[N+](C)(C)C)OS(C)(=O)=O (stereo not drawn) [Compound 1aR] | 1400 | 56.6 ± 8.3 | 52.4 ± 8.6 | 51.6 ± 8.1 |  |  | less DEVDase activity than ET-18-OCH3 | =/+ | =/+
